Tested on: PDE4
Experiment: Evaluation of PDE4 inhibitory activity, scintillation proximity assay
Assay type: biochemical
Conditions: scintillation proximity assay; class symbols of Evaluation 1; read-out: PDE4 Inhibitory Activity (concentration for the inhibition rate of 50%, IC50), Evaluation 1
Protocol: The BDE4 inhibitory activity was measured using scintillation proximity assay (SPA) as follows. First, a test compound dissolved in dimethyl sulfoxide was diluted 1:10 in reaction buffer solution which contained 50 mM of Tris-HCl with pH 7.4, 8.3 mM of MgCl2, 1.7 mM of EGTA, and 3 mg/mL of bovine serum albumin (BSA). Then, 10 μL of the diluted solution was added in a 96-well assay plate. Moreover, 50 μL of PDE4 (enzyme preparation) diluted 1:375 in the reaction buffer solution was added, and then 40 μL of [2,8-^3H]-adenosine-3′,5′-cyclic phosphate triethylammonium salt diluted 1:1000 in the reaction buffer solution was added. The mixture was allowed to stand at room temperature for 120 minutes. Thereafter, […] of RNA binding YSi-SPA beads suspension containing ZnSO4 was added and the mixture was allowed to stand at room temperature for 15 minutes, followed by adsorption of the enzyme reaction product to the beads. After that, the radioactivity was measured using a liquid scintillation counter for a 96-well plate. The mixture without the enzyme preparation added but only the reaction buffer solution added is a blank, and the mixture with the enzyme preparation added and only dimethyl sulfoxide added instead of the test compound is a control.
In addition, the PDE4 inhibitory activity (concentration that inhibits PDE4 activity by 50%=concentration for the inhibition rate of 50% (IC50)) of the test compound was calculated from the inhibition curves based on the inhibition rates for various concentrations of the test compound.

Structure (SMILES) | IC50 [nM]
CC(O)(c1cc(-c2nccs2)c2oc(N3CC4CCCC(C3)N4)nc2c1)C(F)(F)F (centres unmarked) [Example 161, 2-(2-(3,9-Diazabicyclo[3.3.1]nonan-3-yl)-7-(thiazol-2-yl)benzo[d]oxazol-5-yl)-1,1,1-trifluoropropan-2-ol] | < 100
OC(c1cc(-c2nccs2)c2oc(N3CC4CCC(C3)N4)nc2c1)C(F)(F)F (racemic) [Example 137, 1-(2-(3,8-Diazabicyclo[3.2.1]octan-3-yl)-7-(thiazol-2-yl)benzo[d]oxazol-5-yl)-2,2,2-trifluoroethan-1-ol] | < 100
FC(F)(F)c1ccc(-c2nccs2)c2oc(N3CC4CCCC(C3)N4)nc12 [Example 33, 2-(3,9-Diazabicyclo[3.3.1]nonan-3-yl)-7-(thiazol-2-yl)-4-(trifluoromethyl)benzo[d]oxazole] | < 100
FC(F)(F)COc1cc(-c2nccs2)c2oc(N3CC4CC(C3)N4)nc2c1 [Example 67, 2-(3,6-Diazabicyclo[3.1.1]heptan-3-yl)-7-(thiazol-2-yl)-5-(2,2,2-trifluoroethoxy)benzo[d]oxazole] | < 100
Oc1cc(-c2nccs2)c2oc(N3CC4CCCC(C3)N4)nc2c1 [Example 65, 2-(3,9-Diazabicyclo[3.3.1]nonan-3-yl)-7-(thiazol-2-yl)benzo[d]oxazol-5-ol] | < 100
CC(C)(O)COC(c1ccc(-c2nccs2)c2oc(N3CC4CC(C3)N4)nc12)C(F)F (centres unmarked) [Example 127, 1-(1-(2-(3,6-Diazabicyclo[3.1.1]heptan-3-yl)-7-(thiazol-2-yl)benzo[d]oxazol-4-yl)-2,2-difluoroethoxy)-2-methylpropan-2-ol] | < 100
COC(c1ccc(-c2nccs2)c2oc(N3CC4CC(C3)N4)nc12)C(F)(F)F (centres unmarked) [Example 123, 2-(3,6-Diazabicyclo[3.1.1]heptan-3-yl)-7-(thiazol-2-yl)-4-(2,2,2-trifluoro-1-methoxyethyl)benzo[d]oxazole] | < 100
Cc1ccc(-c2nccs2)c2oc(N3CC4CC(C3)N4)nc12 [Example 26, 2-(3,6-Diazabicyclo[3.1.1]heptan-3-yl)-4-methyl-7-(thiazol-2-yl)benzo[d]oxazole] | < 100
FC(F)(F)Oc1cc(-c2nccs2)c2oc(N3CC4CCC(C3)N4)nc2c1 [Example 54, 2-(3,8-Diazabicyclo[3.2.1]octan-3-yl)-7-(thiazol-2-yl)-5-(trifluoromethoxy)benzo[d]oxazole] | < 100
CC(O)(c1ccc(-c2nccs2)c2oc(N3CC4CCC(C3)N4)nc12)C(F)F (centres unmarked) [Example 129, 2-(2-(3,8-Diazabicyclo[3.2.1]octan-3-yl)-7-(thiazol-2-yl)benzo[d]oxazol-4-yl)-1,1-difluoropropan-2-ol] | < 100
COC(C)(c1cc(-c2nccs2)c2oc(N3CC4CCC(C3)N4)nc2c1)C(F)(F)F (centres unmarked) [Example 102, 2-(3,8-Diazabicyclo[3.2.1]octan-3-yl)-7-(thiazol-2-yl)-5-(1,1,1-trifluoro-2-methoxypropan-2-yl)benzo[d]oxazole] | < 100
FC(F)(F)Oc1c(Cl)cc(-c2nccs2)c2oc(N3CC4CCCC(C3)N4)nc12 [Example 2, 2-(3,9-Diazabicyclo[3.3.1]nonan-3-yl)-5-chloro-7-(thiazol-2-yl)-4-(trifluoromethoxy)benzo[d]oxazole] | < 100
FC(F)(F)COC(c1cc(-c2nccs2)c2oc(N3CC4CC(C3)N4)nc2c1)C(F)(F)F (centres unmarked) [Example 151, 2-(3,6-Diazabicyclo[3.1.1]heptan-3-yl)-7-(thiazol-2-yl)-5-(2,2,2-trifluoro-1-(2,2,2-trifluoroethoxy)ethyl)benzo[d]oxazole] | < 100

Same assay, conditions: scintillation proximity assay; read-out: PDE4 Inhibitory Activity (Evaluation 1; concentration for the inhibition rate of 50%)

Structure (SMILES) | IC50 [nM]
OC(c1cc(-c2cscn2)c2oc(N3CC4CCC(C3)N4)nc2c1OC(F)(F)F)C(F)F (centres unmarked) [Example 303, 1-(2-(3,8-Diazabicyclo[3.2.1]octan-3-yl)-7-(thiazol-4-yl)-4-(trifluoromethoxy)benzo[d]oxazol-5-yl)-2,2-difluoroethan-1-ol] | < 100
CC(C)(O)C(F)(F)Oc1ccc(-c2cscn2)c2oc(N3CC4CCC(C3)N4)nc12 [Example 308, 1-((2-(3,8-Diazabicyclo[3.2.1]octan-3-yl)-7-(thiazol-4-yl)benzo[d]oxazol-4-yl)oxy)-1,1-difluoro-2-methylpropan-2-ol] | < 100
OC(c1cc(-c2cscn2)c2oc(N3CC4CC(C3)N4)nc2c1OC(F)(F)F)C(F)F (centres unmarked) [Example 301, 1-(2-(3,6-Diazabicyclo[3.1.1]heptan-3-yl)-7-(thiazol-4-yl)-4-(trifluoromethoxy)benzo[d]oxazol-5-yl)-2,2-difluoroethan-1-ol] | < 100
CN(C)C(=O)C(F)(F)Oc1ccc(-c2nccs2)c2oc(N3CC4CC(C3)N4)nc12 [Example 408, 2-((2-(3,6-Diazabicyclo[3.1.1]heptan-3-yl)-7-(thiazol-2-yl)benzo[d]oxazol-4-yl)oxy)-2,2-difluoro-N,N-dimethylacetamide] | < 100
OC(c1ccc(-c2nccs2)c2oc(N3CC4CCC(C3)N4O)nc12)C(F)(F)F (centres unmarked) [Example 379, 3-(7-(Thiazol-2-yl)-4-(2,2,2-trifluoro-1-hydroxyethyl)benzo[d]oxazol-2-yl)-3,8-diazabicyclo[3.2.1]octan-8-ol] | < 100
CC(C)(O)c1cc(-c2cscn2)c2oc(N3CC4CCC(C3)N4)nc2c1OC(F)(F)F [Example 291, 2-(2-(3,8-Diazabicyclo[3.2.1]octan-3-yl)-7-(thiazol-4-yl)-4-(trifluoromethoxy)benzo[d]oxazol-5-yl)propan-2-ol] | < 100
CCOC(c1ccc(-c2nccs2)c2oc(N3CC4CCC(C3)N4)nc12)C(F)(F)F (centres unmarked) [Example 220, 2-(3,8-Diazabicyclo[3.2.1]octan-3-yl)-4-(1-ethoxy-2,2,2-trifluoroethyl)-7-(thiazol-2-yl)benzo[d]oxazole] | < 100
CC(C)(O)COC(c1ccc(-c2nccs2)c2oc(N3CC4CC(C3)N4)nc12)C(F)(F)F (centres unmarked) [Example 255] | < 100
COC(C)(c1cc(-c2nccs2)c2oc(N3CC4CCC(C3)N4)nc2c1OC(F)(F)F)C(F)(F)F (centres unmarked) [Example 215, 2-(3,8-Diazabicyclo[3.2.1]octan-3-yl)-7-(thiazol-2-yl)-5-(1,1,1-trifluoro-2-methoxypropan-2-yl)-4-(trifluoromethoxy)benzo[d]oxazole] | < 100
CCOC(c1ccc(-c2nccs2)c2oc(N3CC4CC(C3)N4)nc12)C(F)(F)F (centres unmarked) [Example 224, 2-(3,6-Diazabicyclo[3.1.1]heptan-3-yl)-4-(1-ethoxy-2,2,2-trifluoroethyl)-7-(thiazol-2-yl)benzo[d]oxazole] | < 100
OC(O)(c1ccc(-c2nccs2)c2oc(N3CC4CCC(C3)N4)nc12)C(F)(F)F [Example 233, 1-(2-(3,8-Diazabicyclo[3.2.1]octan-3-yl)-7-(thiazol-2-yl)benzo[d]oxazol-4-yl)-2,2,2-trifluoroethane-1,1-diol] | < 100
COC(C)(C)c1cc(-c2nccs2)c2oc(N3CC4CCCC(C3)N4)nc2c1OC(F)(F)F [Example 200, 2-(3,9-Diazabicyclo[3.3.1]nonan-3-yl)-5-(2-methoxypropan-2-yl)-7-(thiazol-2-yl)-4-(trifluoromethoxy)benzo[d]oxazole] | < 100
COC1(c2cc(-c3nccs3)c3oc(N4CC5CC(C4)N5)nc3c2OC(F)(F)F)CC1 [Example 283, 2-(3,6-Diazabicyclo[3.1.1]heptan-3-yl)-5-(1-methoxycyclopropyl)-7-(thiazol-2-yl)-4-(trifluoromethoxy)benzo[d]oxazole] | < 100

Source: patent publication US12239643B2, “Therapeutic agent for inflammatory diseases, autoimmune diseases, fibrotic diseases, and cancer diseases” (MEIJI SEIKA PHARMA CO., LTD., priority 2018, dated 2025)
